Results taken from patent US20090203708A1, “NOVEL SUBSTITUTED-1-H-QUINAZOLINE-2,4-DIONE DERIVATIVES, PREPARATION METHOD THEREOF AND PHARMACEUTICAL COMPOSITION CONTAINING THE SAME” (Korea Research Institute of Chemical Technology, priority 2006, published 2009).

Experiments:
[1] = target: human serotonin 5-HT6 receptor (Homo sapiens, UniProt P50406); assay: [3H]LSD binding assay for cloned 5-HT6 receptors
Chain of human serotonin 5-HT6 receptor (P50406 whole entry): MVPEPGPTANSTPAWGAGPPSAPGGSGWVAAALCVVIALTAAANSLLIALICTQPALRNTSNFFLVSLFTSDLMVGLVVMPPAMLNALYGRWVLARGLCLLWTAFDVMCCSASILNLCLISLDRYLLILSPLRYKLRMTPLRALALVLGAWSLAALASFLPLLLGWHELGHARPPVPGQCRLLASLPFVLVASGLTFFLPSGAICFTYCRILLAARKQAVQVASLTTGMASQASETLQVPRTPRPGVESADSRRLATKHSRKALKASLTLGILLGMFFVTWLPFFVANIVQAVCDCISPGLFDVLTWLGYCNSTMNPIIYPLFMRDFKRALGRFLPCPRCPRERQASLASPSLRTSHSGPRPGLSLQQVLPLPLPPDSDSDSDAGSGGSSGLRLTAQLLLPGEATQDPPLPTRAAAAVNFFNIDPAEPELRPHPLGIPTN

Row | IC50 [1] [nM] | melting point [°C] | Compound
1 | 3.1 | 155 to 159 | CCn1c(=O)c2c(N3CCN(C)CC3)cc(Cl)cc2n(Cc2ccccc2)c1=O [Example 2, 1-benzyl-7-chloro-3-ethyl-5-(4-methyl-piperazin-1-yl)-1H-quinazoline-2,4-dione]
2 | 2.8 | – | CCCCn1c(=O)c2c(N3CCN(C)CC3)cc(Cl)cc2n(Cc2ccccc2)c1=O [Example 4, 1-benzyl-3-butyl-7-chloro-5-(4-methyl-piperazin-1-yl)-1H-quinazoline-2,4-dione]
3 | 3.6 | 62 to 68 | CC(C)CCn1c(=O)c2c(N3CCN(C)CC3)cc(Cl)cc2n(Cc2ccccc2)c1=O [Example 5, 1-benzyl-7-chloro-3-(3-methyl-butyl)-5-(4-methyl-piperazin-1-yl)-1H-quinazoline-2,4-dione]
4 | 4.2 | 163 to 169 | CN1CCN(c2cc(Cl)cc3c2c(=O)n(CC2CCCCC2)c(=O)n3Cc2ccccc2)CC1 [Example 6, 1-benzyl-7-chloro-3-cyclohexylmethyl-5-(4-methyl-piperazin-1-yl)-1H-quinazoline-2,4-dione]
5 | 167 | 111 to 119 | CN1CCN(c2cc(Cl)cc3c2c(=O)n(-c2ccccc2)c(=O)n3Cc2ccccc2)CC1 [Example 8, 1-benzyl-7-chloro-5-(4-methyl-piperazin-1-yl)-3-phenyl-1H-quinazoline-2,4-dione]
6 | 12.4 | 155 to 158 | COc1ccc(-n2c(=O)c3c(N4CCN(C)CC4)cc(Cl)cc3n(Cc3ccccc3)c2=O)cc1 [Example 9, 1-benzyl-7-chloro-3-(4-methoxy-phenyl)-5-(4-methyl-piperazin-1-yl)-1H-quinazoline-2,4-dione]
7 | 2.7 | 154 to 157 | CN1CCN(c2cc(Cl)cc3c2c(=O)n(Cc2cccc(Br)c2)c(=O)n3Cc2ccccc2)CC1 [Example 15, 1-benzyl-3-(3-bromo-benzyl)-7-chloro-5-(4-methyl-piperazin-1-yl)-1H-quinazoline-2,4-dione]
8 | 3.3 | 93 to 98 | CN1CCN(c2cc(Cl)cc3c2c(=O)n(Cc2ccc(Br)cc2)c(=O)n3Cc2ccccc2)CC1 [Example 16, 1-benzyl-3-(4-bromo-benzyl)-7-chloro-5-(4-methyl-piperazin-1-yl)-1H-quinazoline-2,4-dione]
9 | 4.7 | – | CN1CCN(c2cc(Cl)cc3c2c(=O)n(Cc2ccc(I)cc2)c(=O)n3Cc2ccccc2)CC1 [Example 21, 1-benzyl-7-chloro-3-(4-iodo-benzyl)-5-(4-methyl-piperazin-1-yl)-1H-quinazoline-2,4-dione]
10 | 2.6 | 171 to 175 | Cc1cccc(Cn2c(=O)c3c(N4CCN(C)CC4)cc(Cl)cc3n(Cc3ccccc3)c2=O)c1 [Example 23, 1-benzyl-7-chloro-3-(3-methyl-benzyl)-5-(4-methyl-piperazin-1-yl)-1H-quinazoline-2,4-dione]
11 | 7.9 | 98 to 110 | COc1cccc(Cn2c(=O)c3c(N4CCN(C)CC4)cc(Cl)cc3n(Cc3ccccc3)c2=O)c1 [Example 26, 1-benzyl-7-chloro-3-(3-methoxy-benzyl)-5-(4-methyl-piperazin-1yl)-1H-quinazoline-2,4-dione]
12 | 10.2 | 81 to 89 | COc1ccc(Cn2c(=O)c3c(N4CCN(C)CC4)cc(Cl)cc3n(Cc3ccccc3)c2=O)cc1 [Example 27, 1-benzyl-7-chloro-3-(4-methoxy-benzyl)-5-(4-methyl-piperazin-1-yl)-1H-quinazoline-2,4-dione]
13 | 2.5 | 130 to 132 | CN1CCN(c2cc(Cl)cc3c2c(=O)n(Cc2ccccc2O)c(=O)n3Cc2ccccc2)CC1 [Example 28, 1-benzyl-7-chloro-3-(2-hydroxy-benzyl)-5-(4-methyl-piperazin-1-yl)-1H-quinazoline-2,4-dione]
14 | 15 | 234 to 236 | CN1CCN(c2cc(Cl)cc3c2c(=O)n(Cc2cccc(O)c2)c(=O)n3Cc2ccccc2)CC1 [Example 29, 1-benzyl-7-chloro-3-(3-hydroxy-benzyl)-5-(4-methyl-piperazin-1-yl)-1H-quinazoline-2,4-dione]
15 | 27 | 138 to 140 | CN1CCN(c2cc(Cl)cc3c2c(=O)n(Cc2ccc(O)cc2)c(=O)n3Cc2ccccc2)CC1 [Example 30, 1-benzyl-7-chloro-3-(4-hydroxy-benzyl)-5-(4-methyl-piperazin-1-yl)-1H-quinazoline-2,4-dione]
16 | 15.4 | 109 to 113 | CN1CCN(c2cc(Cl)cc3c2c(=O)n(Cc2ccc([N+](=O)[O-])cc2)c(=O)n3Cc2ccccc2)CC1 [Example 33, 1-benzyl-7-chloro-5-(4-methyl-piperazin-1-yl)-3-(4-nitro-benzyl)-1H-quinazoline-2,4-dione]
17 | 2.5 | – | CN1CCN(c2cc(Cl)cc3c2c(=O)n(Cc2ccccc2N)c(=O)n3Cc2ccccc2)CC1 [Example 34, 3-(2-amino-benzyl)-1-benzyl-7-chloro-5-(4-methyl-piperazin-1-yl)-1H-quinazoline-2,4-dione]

Row | IC50 [1] [nM] | melting point [°C] | Compound
18 | 40.2 | 260 to 265 | CN1CCN(c2cc(Cl)cc3c2c(=O)n(Cc2cccc(N)c2)c(=O)n3Cc2ccccc2)CC1 [Example 35, 3-(3-amino-benzyl)-1-benzyl-7-chloro-5-(4-methyl-piperazin-1-yl)-1H-quinazoline-2,4-dione]
19 | 22.1 | 93 to 96 | CN1CCN(c2cc(Cl)cc3c2c(=O)n(Cc2ccc(N)cc2)c(=O)n3Cc2ccccc2)CC1 [Example 36, 3-(4-amino-benzyl)-1-benzyl-7-chloro-5-(4-methyl-piperazin-1-yl)-1H-quinazoline-2,4-dione]
20 | 27.1 | 99 to 105 | CN1CCN(c2cc(Cl)cc3c2c(=O)n(Cc2ccc(C#N)cc2)c(=O)n3Cc2ccccc2)CC1 [Example 37, 4-[1-benzyl-7-chloro-5-(4-methyl-piperazin-1-yl)-2,4-dioxo-1,4-dihydro-2H-quinazoline-3-ylmethyl]-benzonitrile]
21 | 2.7 | 90 to 94 | COC(=O)c1ccc(Cn2c(=O)c3c(N4CCN(C)CC4)cc(Cl)cc3n(Cc3ccccc3)c2=O)cc1 [Example 38, 4-[1-benzyl-7-chloro-5-(4-methyl-piperazin-1-yl)-2,4-dioxo-1,4-dihydro-2H-quinazoline-3-ylmethyl]-benzoic acid methyl ester]
22 | 5.1 | 96 to 99 | Cc1ccc(Cn2c(=O)c3c(N4CCN(C)CC4)cc(Cl)cc3n(Cc3ccccc3)c2=O)cc1C [Example 39, 1-benzyl-7-chloro-3-(3,4-dimethyl-benzyl)-5-(4-methyl-piperazin-1-yl)-1H-quinazoline-2,4-dione]
23 | 10.5 | 56 to 62 | CC(C)Cc1cccc(CCCn2c(=O)c3c(N4CCN(C)CC4)cc(Cl)cc3n(Cc3ccccc3)c2=O)c1 [Example 45, 1-benzyl-7-chloro-3-[3-(3-isobutyl-phenyl)-propyl]-5-(4-methyl-piperazin-1-yl)-1H-quinazoline-2,4-dione]
24 | 3.2 | 75 to 89 | CN1CCN(c2cc(Cl)cc3c2c(=O)n(Cc2cccc4ccccc24)c(=O)n3Cc2ccccc2)CC1 [Example 46, 1-benzyl-7-chloro-5-(4-methyl-piperazin-1-yl)-3-naphthalen-1-ylmethyl-1H-quinazoline-2,4-dione]
25 | 33.3 | 94 to 100 | CN1CCN(c2cc(Cl)cc3c2c(=O)n(Cc2ccncc2)c(=O)n3Cc2ccccc2)CC1 [Example 48, 1-benzyl-7-chloro-5-(4-methyl-piperazin-1-yl)-3-pyridin-4-ylmethyl-1H-quinazoline-2,4-dione]
26 | > 1000 | 208 to 210 | CN1CCN(c2cc(Cl)cc3[nH]c(=O)n(Cc4ccccc4)c(=O)c23)CC1 [Example 49, 3-benzyl-7-chloro-5-(4-methyl-piperazin-1-yl)-1H-quinazoline-2,4-dione]
27 | > 1000 | 132 to 136 | CN1CCN(c2cc(Cl)cc3c2c(=O)n(Cc2ccccc2)c(=O)n3C)CC1 [Example 50, 3-benzyl-7-chloro-1-methyl-5-(4-methyl-piperazin-1-yl)-1H-quinazoline-2,4-dione]
28 | 729 | 68 to 75 | CCn1c(=O)n(Cc2ccccc2)c(=O)c2c(N3CCN(C)CC3)cc(Cl)cc21 [Example 51, 3-benzyl-7-chloro-1-ethyl-5-(4-methyl-piperazin-1-yl)-1H-quinazoline-2,4-dione]
29 | 169 | – | CCCn1c(=O)n(Cc2ccccc2)c(=O)c2c(N3CCN(C)CC3)cc(Cl)cc21 [Example 52, 3-benzyl-7-chloro-5-(4-methyl-piperazin-1-yl)-1-propyl-1H-quinazoline-2,4-dione]
30 | 30.2 | – | CCCCn1c(=O)n(Cc2ccccc2)c(=O)c2c(N3CCN(C)CC3)cc(Cl)cc21 [Example 53, 3-benzyl-1-butyl-7-chloro-5-(4-methyl-piperazin-1-yl)-1H-quinazoline-2,4-dione]
31 | 3.4 | 115 to 123 | O=c1c2c(N3CCNCC3)cc(Cl)cc2n(Cc2ccccc2)c(=O)n1Cc1ccccc1 [Example 57, 1,3-dibenzyl-7-chloro-5-piperazin-1-yl-1H-quinazoline-2,4-dione]
32 | 2.3 | 122 to 125 | COc1ccccc1Cn1c(=O)c2c(N3CCNCC3)cc(Cl)cc2n(Cc2ccccc2)c1=O [Example 63, 1-benzyl-7-chloro-3-(2-methoxy-benzyl)-5-piperazin-1-yl-1H-quinazoline-2,4-dione]
33 | 6.4 | 124 to 130 | COc1cccc(Cn2c(=O)c3c(N4CCNCC4)cc(Cl)cc3n(Cc3ccccc3)c2=O)c1 [Example 64, 1-benzyl-7-chloro-3-(3-methyoxy-benzyl)-5-piperazin-1-yl-1H-quinazoline-2,4-dione]
34 | 3.6 | – | Nc1ccccc1Cn1c(=O)c2c(N3CCNCC3)cc(Cl)cc2n(Cc2ccccc2)c1=O [Example 67, 3-(2-amino-benzyl)-1-benzyl-7-chloro-5-piperazin-1-yl-1H-quinazoline-2,4-dione]
